Measurements: US20140005160A1, “Method for Treating Refractory Cancer” (priority 2010, published 2014)
Where two headings read alike, the source gives them in different places. Values belong to the compound of their own block, whether it stands above or below them.

Key:
[1] = system: human melanoma cell line A375; assay: ATCC MTT Cell Proliferation Assay, A375
Experimental: (§6) Stock cultures were allowed to grow to 70-80% confluence for this study. […] ZR-75-1 plates were seeded with 3,000 cells/well, and the cells were grown in RPMI1640 medium containing 1% (1M HEPES), 1% sodium pyruvate, 1% (45% Glucose), 10% FBS and 1% penicillin/strep/glutamine. Cultures were maintained in a 37° C. humidified 5% CO2/95% air atmosphere. […] 100 μl of medium was removed from each well at 72 hours post-treatment and 10 μl MTT reagent was added to each well. The plates were incubated at 37° C. for 4 hours and then 100 μl of detergent was added. The plates were left overnight at room temperature in the dark and was read on a plate reader using SoftMax® Pro (version 5.2, Molecular Devices).
(§7) The absorbance data was analyzed as follows: Absorbance values were converted to Percent of Control and plotted against test agent concentrations for IC50 calculations using SoftMax® Pro (version 5.2, Molecular Devices). […] Percent of Control values were calculated by dividing the absorbance values for each test well by the No Drug Control average (column 11 values; cells+vehicle control) and multiplying by 100. Plots of Compound Concentration versus Percent of Control were analyzed using the 4-parameter equation to obtain IC50 values and other parameters that describe the sigmoidal dose response curve. […]

[2] = system: HCT-116 p53 (+/+); conditions: Colon HCT-116 p53 (+/+), 72 hours exposure, MTT
Experimental: (§1) The colon carcinoma cell line HCT116 (HCT-116 p53 (+/+)) and the corresponding subline with deleted p53 genes (HCT-116 p53 (−/−)) were grown in McCoy's culture medium with 10% FCS. […] For cytotoxicity assays, cells were plated (2×10^3 cells in 100 μl/well) in 96-well plates and allowed to recover for 24 hours. […] The proportion of viable cells was determined by MTT assay following the manufacturer's recommendations (EZ4U, Biomedica, Vienna, Austria).

[3] = system: HCT-116 p53 (−/−); conditions: Colon HCT-116 p53 (−/−), 72 hours exposure, MTT
Experimental: as §1

[4] = system: human breast carcinoma cell line ZR-75-1; assay: ATCC MTT Cell Proliferation Assay, ZR-75-1; assay type: cell-based; conditions: for IC50: ZR-75-1, 72 hours, MTT; for IC50 Ratio (ZR-75-1/MX-1): ratio of IC50 in ZR-75-1 to MX-1
Experimental: as §6
The absorbance data was analyzed as follows: Absorbance values were converted to Percent of Control and plotted against test agent concentrations for IC50 calculations using SoftMax® Pro (version 5.2, Molecular Devices). The plate blank signal average was subtracted from all wells prior to calculating the Percent of Control. Percent of Control values were calculated by dividing the absorbance values for each test well by the No Drug Control average (column 11 values; cells+vehicle control) and multiplying by 100. Plots of Compound Concentration versus Percent of Control were analyzed using the 4-parameter equation to obtain IC50 values and other parameters that describe the sigmoidal dose response curve.
The IC50 value for the test agent was estimated by curve-fitting the data using the following four parameter-logistic equation:
wherein “Top” is the maximal % of control absorbance (100%), “Bottom” is the minimal % of control absorbance at the highest agent concentration (down to zero), Y is the Percent of Control absorbance, X is the test agent Concentration, IC50 is the concentration of agent that inhibits cell growth by 50% compared to the control cells, n is the slope of the curve.

[5] = system: human breast cancer cell line MX-1; assay: ATCC MTT Cell Proliferation Assay, MX-1; assay type: cell-based; conditions: MX-1, 72 hours
Experimental: as §6, §7

[6] = system: breast cancer cell line MDA-MB-231; assay: ATCC MTT Cell Proliferation Assay, MDA-MB-231; assay type: cell-based; conditions: for IC50: MDA-MB-231, same manner as Example 2 (Table 3); for IC50 Ratio (MDA-MB-231/MCF-7): ratio of IC50 in MDA-MB-231 to MCF-7
[7] = system: breast cancer cell line MCF-7; assay: ATCC MTT Cell Proliferation Assay, MCF-7; assay type: cell-based; conditions: MCF-7, same manner as Example 2
[8] = system: bcrp-overexpressing line MDA-MB-231/bcrp; conditions: 72 hours, EZ4U MTT
Experimental: (§2) Breast cancer cell line MDA-MB-231 and its corresponding bcrp-overexpressing line MDA-MB-231/bcrp were plated (2×10^3 cells in 100 μl/well) in 96-well plates and allowed to recover for 24 hours. […] The proportion of viable cells was determined by MTT assay following the manufacturer's recommendations (EZ4U, Biomedica, Vienna, Austria), and IC50 values were calculated. […] BCRP-overexpression confers resistance to drugs such as irinotecan, topotecan, mitoxantrone, methotrexate, camptothecins, gefitinib and imatinib etc. See Fojo & Menefee, Ann. Oncol., 18 (Supplement 5):v3-v8 (2007).

[9] = system: breast cancer cell line MDA-MB-231; conditions: MDA-MB-231, 72 hours, EZ4U MTT (Table 4)
Experimental: as §2

[10] = system: MVP- and MRP1-overexpressing subline SW-1573/2R120; conditions: PGP/MRP-1-overexpressing cell line (SW-1573/2R120), 72 hours, EZ4U MTT
Experimental: (§3) The alveolar epithelial cell carcinoma cell line SW-1573 and its MVP- and MRP1-overexpressing subline SW-1573/2R120 were grown in DMEM medium supplemented with 10% fetal calf serum. See Elbling et al., Cytometry, 31:187-198 (1998). Cells were plated (2×10^3 cells in 100 μl/well) in 96-well plates and allowed to recover for 24 hours. […] The proportion of viable cells was determined by MTT assay following the manufacturer's recommendations (EZ4U, Biomedica, Vienna, Austria). […] PGP/MRP-1-overexpression confers resistance to drugs such as vincristine, vinblastine, vinorelbine, taxol, docetaxel, etoposide, mitoxantrone, doxorubincin, epirubicin, topotecan, irinotecan, methotrexate, and imatinib etc. See Fojo & Menefee, Ann. Oncol., 18 (Supplement 5):v3-v8 (2007).

[11] = system: alveolar epithelial cell carcinoma cell line SW-1573; conditions: SW1573 cell line, 72 hours, EZ4U MTT
Experimental: as §3

[12] = system: human lung carcinoma cell line A549; assay: ATCC MTT Cell Proliferation Assay, A549; assay type: cell-based; conditions: for IC50 Ratio (A549/H1975): Table 5, ratio of IC50 in A549 to H1975
[13] = system: human lung carcinoma cell line H1975; assay: ATCC MTT Cell Proliferation Assay, H1975; assay type: cell-based; conditions: H1975 (KRAS wild type), same manner as Example 2
Description: (§4) Table 2 summarizes the results.

[14] = system: human lung carcinoma cell line NCI-H322M; assay: ATCC MTT Cell Proliferation Assay, NCI-H322M; assay type: cell-based; conditions: for IC50: NCI-H322M (KRAS wild type), same manner as Example 2
Description: as §4

[15] = system: human prostate cancer cell line LNCaP (prostate carcinoma); conditions: same manner as Example 2
Description: (§5) In addition, the IC50 values of docetaxel in the LNCaP and PC-3 cell lines were obtained from published literature. […] See Domingo-Domenech et al., Clin. Cancer Res., 12(18):5578-5586 (2006); Blagosklonny et al., J. Urol., 163(3):1022-6 (2000).

[16] = system: human prostate cancer cell line PC-3 (prostate carcinoma)
Description: as §5

[17] = system: human renal cell line A498; conditions: A498, same manner as Example 2
Description: See e.g., Mahalingam et al., Clin. Cancer Res., 16(1):141-153 (2010).

[18] = system: PC-3 cell line; assay: Published literature IC50 of docetaxel, PC-3; assay type: cell-based, human; conditions: ratio from published literature IC50 values
[19] = system: PC-3 cell line; conditions: PC-3, from Domingo-Domenech et al. 2006; cited from earlier work
[20] = system: LNCaP cell line; conditions: from Domingo-Domenech et al. 2006; cited from earlier work

- IC50 ([1]; Homo sapiens, A-375): 369 µM
Compound: Cn1nnc2c(C(N)=O)ncn2c1=O [temozolomide, reference compound]

Compound: [Ga+3].[O-]c1cccc2cccnc12.[O-]c1cccc2cccnc12.[O-]c1cccc2cccnc12
- IC50 [2]: 1.8 µM
- IC50 [3]: 1.7 µM
- IC50 [4]: 1.59 µM
- IC50 Ratio (ZR-75-1/MX-1) [4]: 0.77
- IC50 [5]: 2.06 µM
- IC50 [6]: 0.838 µM
- IC50 Ratio (MDA-MB-231/MCF-7) [6]: 0.681
- IC50 [7]: 1.23 µM
- IC50 [8]: 1.8 µM
- IC50 [9]: 1.6 µM
- IC50 [10]: 2.1 µM
- IC50 [11]: 1.7 µM
- IC50 ([12]; A549 (KRAS G12S), same manner as Example 2): 1.11 µM
- IC50 Ratio (A549/H1975) [12]: 0.31
- IC50 [13]: 3.55 µM
- IC50 [14]: 4.95 µM
- IC50 Ratio (A549/H1975) ([14]; Table 6, Test Drug column, row NCI-H322M): 1.39
- IC50 [15]: 2.19 µM
- IC50 ([16]; PC-3, same manner as Example 2): 1.79 µM
- IC50 Ratio (PC-3/LNCaP) ([16]; ratio of IC50 in PC-3 to LNCaP): 0.82
- IC50 [17]: 32.9 µM
- IC50 ([1]; A375, same manner as Example 2): 1.95 µM

- IC50 ([4]; Homo sapiens): 31.1 µM
- IC50 Ratio (ZR-75-1/MX-1) [4]: 21.2
- IC50 ([5]; Homo sapiens): 1.47 µM
Compound: O=c1[nH]cc(F)c(=O)[nH]1 [5-FU, 5-fluorouracil, reference compound]

- IC50 Ratio (PC-3/LNCaP/) [18]: 12-20
Compound: CC(=O)O[C@@]12CO[C@@H]1C[C@H](O)[C@@]1(C)C(=O)[C@H](O)C3=C(C)[C@@H](OC(=O)[C@H](O)[C@@H](NC(=O)OC(C)(C)C)c4ccccc4)C[C@@](O)([C@@H](OC(=O)c4ccccc4)[C@H]21)C3(C)C [Docetaxel, docetaxel]
- IC50 [19]: 0.05 to 0.06 µM
- IC50 [20]: 0.0025 to 0.005 µM

- IC50 Ratio (A549/H1975) [12]: 1984
- IC50 ([13]; Homo sapiens, NCI-H1975): 0.005 µM
Compound: CC(=O)O[C@H]1C(=O)[C@@]2(C)[C@H]([C@H](OC(=O)c3ccccc3)[C@]3(O)C[C@H](OC(=O)[C@H](O)[C@@H](NC(=O)c4ccccc4)c4ccccc4)C(C)=C1C3(C)C)[C@]1(OC(C)=O)CO[C@@H]1C[C@@H]2O [Paclitaxel, paclitaxel, reference compound]

Compound: N.N.[Cl][Pt][Cl] [Cisplatin, cisplatin, reference compound]
- IC50 [6]: 47.1 µM
- IC50 Ratio (MDA-MB-231/MCF-7) [6]: 5.88
- IC50 [7]: 8.01 µM
- IC50 [13]: 11.4 µM
- IC50 [14]: 52.3 µM
- IC50 Ratio (NCI-H322M/H1975) ([14]; Table 6, cisplatin column): 4.59
